# What was measured:
# Assay type in all cases: cell-based, human
# Jurkat = assay: Cytotoxicity assay (7-AAD viability, flow cytometry); conditions: Homo sapiens, ± standard error of the mean, 95% CI in parenthesis
# From the text: (§1) Cells, including Jurkat E6.1 (human leukemic T cell lymphoblasts, catalogue no. 88042803), K562 (human chronic myelogenous leukemia cells, catalogue no. 89121407), U937 (human histiocytic lymphoma cells, catalogue no. 85011440), HL60 (human promyelocytic leukemia cells, catalog no. 98070106), HEK293 (human embryonic kidney cells with adenovirus, catalog no. 85120602), and human lung fibroblasts Ce (catalogue no. 90011883), were purchased from the European Collection of Authenticated Cell Cultures (UK Health Security Agency) and cultured according to standard protocols using sterile techniques. […] Cells were maintained in RPMI 1640 (Jurkat, K562, U937, and HL60) and DME M (fibroblast and HEK293) (Gibco) supplemented with […] glutamine, 10% FBS (Sigma), and 100 units/mL penicillin-streptomycin (Sigma). All types of cells were grown under an atmosphere of 5% CO2 at 37 °C. The cells were subcultured at 2–3-day intervals. Cells were then seeded in 24-well plates at 5 × 10^4 cells per well and incubated overnight. Jurkat, K562, U937, HL60, HEK293, and fibroblast cells were subcultured at 2-day intervals with a seeding density of 1 × 10^5 cells per well in 24-well plates in RPMI with 10% FBS.
# (§2) Viability (live/dead) assessment was performed by staining cells with 7-AAD (7-aminoactinomycin D; Biolegend). After treatment, cells were harvested, washed 1–2 times with phosphate-buffered saline (PBS), and centrifuged at 400× g for 5 min. Cell pellets were resuspended in 200 µL of flow cytometry staining buffer (PBS without Ca^2+ and Mg^2+, 2.5% FBS) and stained with […] of 7-AAD staining solution for 15 min at room temperature in the dark. Samples were assessed using the NovoCyte Penteon Flow Cytometer System (Agilent, 5301 Stevens Creek Blvd., Santa Clara, CA, USA). Detection of 7-AAD emission was collected through a 675/30 nm filter in the FL4 channel.
# K562 = assay: as above; conditions: Homo sapiens, ± standard error of the mean, 95% CI in parenthesis
# From the text: as §1, §2
# HL60 = assay: as above; conditions: Homo sapiens, HL-60, ± standard error of the mean, 95% CI in parenthesis
# From the text: as §1, §2
# [1] = as above; conditions: human; Hek293, conditionally normal line; ± standard error of the mean, 95% CI in parenthesis
# From the text: as §1, §2
# U937 = assay: as above; conditions: Homo sapiens, U-937, ± standard error of the mean, 95% CI in parenthesis
# From the text: as §1, §2
# Jurkat tumor cell line = assay: Assessment of cytochrome c loss (FlowCellect Cytochrome c Kit); conditions: compound at CC50, incubation 3 h, anti-cytochrome c-FITC
# Protocol: Quantification of cytochrome c release from mitochondria in apoptotic cells was presented to detect the mitochondrial pathway of apoptosis in cells using flow cytometry with the FlowCellect™ Cytochrome c Kit (FCCH100110). For this, cells were treated with FITC-conjugated antibodies against cytochrome c and control anti-IgG1-FITC, together with the use of an optimized fixation procedure, permeabilization, and blocking buffer (Luminex®, USA). […] Jurkat cells were incubated for 4 h with the synthesized substances at a concentration corresponding to their 24-h CC50 in a culture plate and assessed using the NovoCyte Penteon Flow Cytometer System (Agilent, 5301 Stevens Creek Blvd., Santa Clara, CA, USA). The obtained data were processed using NovoExpress® software (ACEA).
# Jurkat cells = assay: Detection of mitodamage: mitochondrial membrane potential and apoptosis (MitoSense Red, annexin V, 7-AAD); conditions: compound at CC50, 4 h
# From the text: The use of reagents MitoSense Red, annexin V, and 7-AAD in the Millipore FlowCellect™ MitoDamage Kit allowed us to gain information on early, mid, and late apoptosis with one simple assay. […] After this time, the cells were dissociated using an accutase solution, stained, and analyzed using the NovoCyte Penteon Flow Cytometer System (Agilent, 5301 Stevens Creek Blvd., Santa Clara, CA, USA), according to the manufacturer’s protocols for the FlowCellect™ MitoDamage Kit and FlowCellect™ Oxidative Stress Characterization Kit (Merck).
# Detection of mitochondrial potential dissipation using MitoSense Red, annexin V, and 7-AAD provided a simultaneous measurement of three important parameters of the cell state within the same cell sample: the state of the mitochondrial potential (Δψ), detected by the membrane-penetrating MitoSense Red dye; the expression of phosphatidylserine on the cell surface of apoptotic cells, assessed by the binding of annexin V to externalized phosphatidylserine; and the binding of 7-AAD to DNA in cells in the late stages of apoptosis. Multiparametric evaluation of these indicators of cell viability made it possible to determine the correlation and relationship between oxidation dissipation and phosphorylation with apoptosis.
smiles,measurement,setting,value
"CCCCCCCCCC/C=C\CC/C=C\CC/C=C\CCCCCCCCCCC1=C[C@H](C)OC1=O [compound 1, chatenaytrienin-1]",CC50,Jurkat,90 ± 20 nM
same,CC50,K562,100 ± 30 nM
same,CC50,HL60,150 ± 10 nM
same,CC50,[1],530 ± 20 nM
same,CC50,U937,90 ± 20 nM
same,cells with cytochrome c released into the cytoplasm (Negative gate),Jurkat tumor cell line,61.67%
same,cells in late apoptosis (stained with 7-AAD),Jurkat cells; Jurkat,15.11%
same,Jurkat tumor cells with the Δψ dissipation phenomenon,Jurkat cells; MitoSense Red,83.69%
